Data from US9925168B2, “Preparation of micronized particles of an antimuscarinic compound by hydrodynamic cavitation” (CHIESI FARMACEUTICI S.P.A., priority 2016, dated 2018).

Legend:
[1] = Particle size by laser light diffraction (Sympatec Dry Dispersion Size Analyzer); type: physicochemical; set-up: d[v,10] / d[v,50] / d[v,90]: unit not given here; conditions: for Span: Span=[d(v,0.9)-d(v,0.1)]/d(v,0.5); for d[v,10] / d[v,50] / d[v,90]: average of triplicate
Description: The particle size was determined by Laser light diffraction using the Sympatec Dry Dispersion Size Analyzer (Clausthal-Zellerfeld, Germany).
The powder was dispersed for two measurement conditions at an air pressure of 1 and 4 bar.
The average d[v,10], d[v,50], d[v,90] values were calculated from triplicate measurements. The span was calculated using the following equation: Span=[d(v,0.9)−d(v,0.1)]/d(v,0.5)

[2] = Physical stability (particle size growth) upon storage; type: physicochemical; conditions: at least three months, ambient conditions (22±2° C. and 60% relative humidity)
Description: The physical stability shall be measured by using a Sympatec Dry Dispersion Size Analyzer, while the chemical stability shall be determined according to known method such as HPLC.

C[N+]1(C)CCC(OC(=O)C(O)(c2ccccc2)C2CCCC2)C1.[Br-] (racemic) [Example 1, (3S,2′R), (3R,2′S)-3-[(Cyclopentylhydroxyphenylacetyl)oxy]-1,1-dimethylpyrrolidinium bromide racemic mixture]
Span ([1]; dispersion pressure 1.0 bar): 1.50
d[v,10] ([1]; dispersion pressure 1.0 bar): 0.81
d[v,50] ([1]; dispersion pressure 1.0 bar): 4.17
d[v,90] ([1]; dispersion pressure 1.0 bar): 7.05
Span ([1]; dispersion pressure 4.0 bar): 2.19
d[v,10] ([1]; dispersion pressure 4.0 bar): 0.43
d[v,50] ([1]; dispersion pressure 4.0 bar): 2.29
d[v,90] ([1]; dispersion pressure 4.0 bar): 5.45
growth of the particle size upon storage [2]: No significant growth of the particle size
